# Source: article PMC7044277 (Nature Communications, 2020)
# “And” between values parts separate entries of the source, which are not always exact repeats. Identical values can stand only once.
# How the values were obtained:
# DRD3 F1063.28A = DRD3 F1063.28A (Homo sapiens, UniProt P35462, F106A); assay: biochemical; format: binding
# 5HT1E = 5HT1E (Homo sapiens, UniProt P28566); assay: β-arrestin2 recruitment (Tango); format: cell-based; details: Fig_S10i
# DRD3 wild-type = DRD3 wild-type (Homo sapiens, UniProt P35462); assay: Radioligand competition binding, [3H]-N-methylspiperone; details: DRD3 wild-type; read-out: pKi ± SEM (converted)
# DRD2 F1103.28L = target: T1, DRD2 F1103.28L (Homo sapiens, UniProt P14416, F110L); assay: β-arrestin2 recruitment (Tango), mutant; format: cell-based
# T1 construct: expressed in transfected cells; host or cells: HEK293T (ATCC CRL-11268)
# 5HT1F = target: T2, 5HT1F (Homo sapiens, UniProt P30939); assay: β-arrestin2 recruitment (Tango); format: cell-based; details: for β-arrestin2 recruitment response, agonist mode (single replicate values): Fig_S10j; for Fig_S10j dose-response, drug alone (agonist mode), β-arrestin2 recruitment: single replicate values
# T2 construct: expressed in transfected cells; host or cells: HTLA cells expressing TEV-fused β-arrestin2
# T2 sequence (P30939 1-366): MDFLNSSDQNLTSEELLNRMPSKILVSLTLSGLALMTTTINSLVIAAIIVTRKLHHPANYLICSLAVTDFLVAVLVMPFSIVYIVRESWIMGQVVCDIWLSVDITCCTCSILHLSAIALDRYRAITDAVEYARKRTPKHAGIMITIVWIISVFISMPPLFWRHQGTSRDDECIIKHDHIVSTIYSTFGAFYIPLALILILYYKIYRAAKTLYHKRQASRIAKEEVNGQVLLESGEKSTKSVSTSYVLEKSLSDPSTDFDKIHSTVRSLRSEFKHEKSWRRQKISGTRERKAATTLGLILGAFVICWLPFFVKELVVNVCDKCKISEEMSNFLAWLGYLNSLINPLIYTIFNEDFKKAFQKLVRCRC
# Sequence of 5HT1E (P28566 whole entry): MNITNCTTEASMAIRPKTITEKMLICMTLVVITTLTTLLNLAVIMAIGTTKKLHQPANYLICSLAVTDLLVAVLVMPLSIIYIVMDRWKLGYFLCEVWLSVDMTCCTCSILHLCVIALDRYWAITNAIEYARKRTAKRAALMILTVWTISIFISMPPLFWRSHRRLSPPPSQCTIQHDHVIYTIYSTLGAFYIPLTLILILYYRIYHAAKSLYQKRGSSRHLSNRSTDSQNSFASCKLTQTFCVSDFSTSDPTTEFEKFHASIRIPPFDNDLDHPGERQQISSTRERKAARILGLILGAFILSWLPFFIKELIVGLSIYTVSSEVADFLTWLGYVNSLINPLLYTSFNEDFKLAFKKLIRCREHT
# T1 sequence (P14416 whole entry F110L): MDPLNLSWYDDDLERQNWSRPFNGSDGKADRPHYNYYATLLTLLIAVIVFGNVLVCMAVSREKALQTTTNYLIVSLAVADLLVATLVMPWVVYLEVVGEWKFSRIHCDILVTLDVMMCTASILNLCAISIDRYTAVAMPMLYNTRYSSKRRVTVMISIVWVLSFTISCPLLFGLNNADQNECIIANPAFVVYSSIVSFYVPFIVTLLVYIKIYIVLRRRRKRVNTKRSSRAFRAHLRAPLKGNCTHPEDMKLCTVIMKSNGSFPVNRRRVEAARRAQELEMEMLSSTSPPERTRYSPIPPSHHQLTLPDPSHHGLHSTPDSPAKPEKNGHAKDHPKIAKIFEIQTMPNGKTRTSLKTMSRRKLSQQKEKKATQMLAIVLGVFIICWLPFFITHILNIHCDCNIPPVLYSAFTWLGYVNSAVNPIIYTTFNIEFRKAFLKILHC
# Sequence of DRD3 F1063.28A (P35462 whole entry F106A): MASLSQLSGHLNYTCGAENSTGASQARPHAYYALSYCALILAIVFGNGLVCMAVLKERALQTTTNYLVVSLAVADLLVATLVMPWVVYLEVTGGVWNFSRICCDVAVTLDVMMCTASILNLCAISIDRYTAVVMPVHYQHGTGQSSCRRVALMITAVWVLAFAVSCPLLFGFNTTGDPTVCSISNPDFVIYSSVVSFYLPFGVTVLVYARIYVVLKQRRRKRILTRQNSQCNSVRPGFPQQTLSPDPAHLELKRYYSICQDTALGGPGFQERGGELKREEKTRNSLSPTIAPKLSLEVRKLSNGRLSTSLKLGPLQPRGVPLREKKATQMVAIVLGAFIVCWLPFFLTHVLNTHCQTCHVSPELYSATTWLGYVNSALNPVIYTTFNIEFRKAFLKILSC
# Sequence of DRD3 wild-type (P35462 whole entry): as the sequence (P35462 whole entry F106A) above, with A106F counted along it
smiles,measurement,setting,value
CCOc1cccc2cc([C@@H](C)NCC3(O)CCCCC3)oc12 [O4RE6],Ki,DRD3 F1063.28A,1050 nM
same,"β-arrestin2 recruitment response, agonist mode (single replicate values)",5HT1E; Log[Drug] -5.52,-0.8838
same,"β-arrestin2 recruitment response, agonist mode (single replicate values)",5HT1E; Log[Drug] -6,5.169 and -3.421 and -7.045 and -2.335 and -9.923 and 2.004 and -14.6813 and -14.4526 and -10.0186
same,"β-arrestin2 recruitment response, agonist mode (single replicate values)",5HT1E; Log[Drug] -6.52,5.136 and -8.797 and -1.582 and 6.94 and -5.772 and 9.5977 and -9.147 and -14.4969 and -14.6019
same,"β-arrestin2 recruitment response, agonist mode (single replicate values)",5HT1E; Log[Drug] -7,-9.403 and -3.356 and -7.031 and 6.361 and -8.019 and 5.611 and -6.317 and -9.482 and -17.1569
same,"β-arrestin2 recruitment response, agonist mode (single replicate values)",5HT1E; Log[Drug] -7.52,-7.7314 and -4.654 and -9.0776 and 5.71 and 2.776 and -4.782 and -16.2446 and -11.396 and -8.341
same,"β-arrestin2 recruitment response, agonist mode (single replicate values)",5HT1E; Log[Drug] -8,-0.303 and 2.682 and 0.8105 and -16.5035 and -1.474 and 1.2682 and -16.075 and -2.697 and -15.9171
same,"β-arrestin2 recruitment response, agonist mode (single replicate values)",5HT1E; Log[Drug] -8.52,-6.877 and -0.9842 and -10.6793 and 4.799 and 9.189 and -4.891 and 2.59 and -7.1 and -6.491
same,"β-arrestin2 recruitment response, agonist mode (single replicate values)",5HT1E; Log[Drug] -9,-3.28 and 6.173 and 0.4053 and -14.2337 and -0.6567 and 5.487 and -22.7397 and -14.6836 and -5.277
same,"β-arrestin2 recruitment response, agonist mode (single replicate values)",5HT1E; Log[Drug] -9.52,-0.2537 and -8.594 and -3.456 and -0.4529 and -8.792 and -9.322 and -17.3288 and -4.524 and -7.744
same,"β-arrestin2 recruitment response, agonist mode (single replicate values)",5HT1E; Log[Drug] -10,-3.52 and -2.38 and 3.183 and -31.9257 and 29.8123 and -9.337 and -10.0295 and -4.283 and -12.1769
same,"β-arrestin2 recruitment response, agonist mode (single replicate values)",5HT1E; Log[Drug] -10.52,0.1347 and 0.5117 and -4.0638 and -13.472 and -7.0659 and -13.7571 and -9.427 and -7.368 and -17.0465
same,"β-arrestin2 recruitment response, agonist mode (single replicate values)",5HT1E; Log[Drug] -11,7.882 and 2.36 and 5.579 and -8.103 and -1.831 and -9.017 and -8.127 and -1.8482 and -12.9803
same,Ki,DRD3 wild-type,115 nM
same,EC50,DRD2 F1103.28L,215 nM
same,Emax,DRD2 F1103.28L; read-out: Emax relative to quinpirole response,7.76%
same,"β-arrestin2 recruitment response, agonist mode (single replicate values)",5HT1F; Log[Drug] -8,-0.9904 and 0.5932 and 0.4069 and -0.749 and -2.5023 and -1.954 and -1.184 and -1.248 and -0.2773
same,"β-arrestin2 recruitment response, agonist mode (single replicate values)",5HT1F; Log[Drug] -8.52,0.3187 and 0.8997 and 1.294 and 0.7694 and -1.144 and -0.1941 and 0.6567 and 0.7348 and -0.5451
same,"β-arrestin2 recruitment response, agonist mode (single replicate values)",5HT1F; Log[Drug] -9,0.2574 and -0.174 and 0.01716 and -1.454 and -1.951 and -2.373 and 1.634 and -1.575 and -0.4734
same,"β-arrestin2 recruitment response, agonist mode (single replicate values)",5HT1F; Log[Drug] -9.52,-0.956 and -0.4682 and 0.01716 and 8.249 and -1.726 and -1.835 and -1.503 and -0.6631 and 0.5435
same,"β-arrestin2 recruitment response, agonist mode (single replicate values)",5HT1F; Log[Drug] -10,2.1842 and 2.2749 and -0.3922 and 0.1736 and 1.58 and -1.964 and -1.621 and -1.4329 and 0.0271
same,"β-arrestin2 recruitment response, agonist mode (single replicate values)",5HT1F; Log[Drug] -10.52,0.6104 and 0.6079 and -0.2672 and -0.6094 and -0.8784 and -1.423 and 0.2215 and -0.4766 and -0.1562
same,"β-arrestin2 recruitment response, agonist mode (single replicate values)",5HT1F; Log[Drug] -11,-0.2991 and -0.7746 and -0.956 and -0.1975 and -1.559 and -1.001 and -0.7953 and -1.428 and -1.442
same,"β-arrestin2 recruitment response, agonist mode (single replicate values)",5HT1F; Log[Drug] -11.52,9.046 and 4.9 and 0.09315 and 0.6026 and -0.4766 and -1.413 and -2.451 and -1.372 and 1.5094
same,"β-arrestin2 recruitment response, agonist mode (single replicate values)",5HT1F; Log[Drug] -12,-1.25 and -0.8555 and 2.1082 and 1.035 and 1.318 and -2.3525 and 0.1164 and 0.6822 and -0.7969
same,"Fig_S10j dose-response, drug alone (agonist mode), β-arrestin2 recruitment",5HT1F; Log[Drug] -5,1.292 and 2.037 and 1.765 and 2.135 and 0.1634 and 3.054 and 1.165 and -0.4495 and -0.04941
same,"Fig_S10j dose-response, drug alone (agonist mode), β-arrestin2 recruitment",5HT1F; Log[Drug] -5.52,-0.7085 and 0.2942 and 0.1765 and 0.7149 and -0.06809 and -1.164 and 0.2965 and -1.31 and 0.1036
same,"Fig_S10j dose-response, drug alone (agonist mode), β-arrestin2 recruitment",5HT1F; Log[Drug] -6,-1.684 and 5.405 and 2.934 and -0.3268 and -0.4664 and -1.437 and 0.7141 and -1.815 and -1.243
